Results as given in article PMC2761036 (Analytical biochemistry, 2009).

Legend:
Type in all cases: biochemical
[1] = target: T1, Sfp (Bacillus subtilis, UniProt P39135); experiment: FRET phosphopantetheinyl transferase assay with purified enzyme
[2] = target: T2, AcpS (Escherichia coli, UniProt P24224); experiment: as above
[3] = target: T1, Sfp; experiment: HPLC enzyme kinetics
[4] = target: T2, AcpS; experiment: HPLC enzyme kinetics

T2 sequence (P24224 2-126): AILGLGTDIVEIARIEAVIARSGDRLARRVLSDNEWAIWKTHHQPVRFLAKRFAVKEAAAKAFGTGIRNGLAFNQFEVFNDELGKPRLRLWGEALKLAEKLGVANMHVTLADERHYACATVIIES
T1 sequence (P39135 whole entry): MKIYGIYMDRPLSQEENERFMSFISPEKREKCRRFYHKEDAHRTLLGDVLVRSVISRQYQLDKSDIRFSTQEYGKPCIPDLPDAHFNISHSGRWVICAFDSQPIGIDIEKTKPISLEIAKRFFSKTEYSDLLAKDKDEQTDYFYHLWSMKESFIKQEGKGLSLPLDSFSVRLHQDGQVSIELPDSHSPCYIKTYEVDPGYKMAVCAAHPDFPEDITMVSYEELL

Row | Compound | IC50 [1] | IC50 [2] | Km [3] | Km [4]
1 | Nc1ncnc2c1ncn2[C@@H]1O[C@H](COP(=O)(O)O)[C@@H](OP(=O)(O)O)[C@H]1O [compound 3, 3’-phosphoadenosine-5’-phosphate] | 12.3 ± 1.1 µM | 92 ± 6 µM |  | 
2 | TAMRA-mCoA [compound 12] |  |  | 6 µM | 22 µM
